The values below come from PubChem BioAssay AID192 (DTP/NCI, 2004).

The subject of this test is BDF1 mice, B16 melanoma ip, median survival T/C. Put plainly: NCI In Vivo Anticancer Drug Screen. Data for tumor model B16 Melanoma (intraperitoneal) in B6D2F1 (BDF1) mice. The following applies: endpoint: median survival time, higher = longer survival. In a few lines: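 Mice with transplantable tumors; drug vs vehicle groups; endpoint survival or tumor size; value = T/C.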

The mark [1] stands for this setting: dose: 3.13 mg/kg/injection, schedule: Q01DX009 (ip), vehicle: saline.
Where [2] appears, read: dose: 6.25 mg/kg/injection, schedule: Q01DX009 (ip), vehicle: saline.
Where [3] appears, read: dose: 50.0 mg/kg/injection, schedule: Q04DX003 (ip), vehicle: Klucel (hydroxypropylcellulose) (HPC).
The mark [4] stands for this setting: dose: 100.0 mg/kg/injection, schedule: Q04DX003 (ip), vehicle: Klucel (hydroxypropylcellulose) (HPC).
[5] abbreviates: dose: 200.0 mg/kg/injection, schedule: Q04DX003 (ip), vehicle: Klucel (hydroxypropylcellulose) (HPC).
[6] abbreviates: dose: 25.0 mg/kg/injection, schedule: Q01DX009 (ip), vehicle: saline.
Where [7] appears, read: dose: 50.0 mg/kg/injection, schedule: Q01DX009 (ip), vehicle: saline.
[8] abbreviates: dose: 100.0 mg/kg/injection, schedule: Q01DX009 (ip), vehicle: saline.
[9] abbreviates: dose: 0.25 mg/kg/injection, schedule: Q01DX009 (ip), vehicle: saline.
[10] abbreviates: dose: 0.5 mg/kg/injection, schedule: Q01DX009 (ip), vehicle: saline.
[11] abbreviates: dose: 1.0 mg/kg/injection, schedule: Q01DX009 (ip), vehicle: saline.
Setting [12] is: dose: 400.0 mg/kg/injection, schedule: Q04DX003 (ip), vehicle: saline with Tween-80.
[13] abbreviates: dose: 6.25 mg/kg/injection, schedule: Q01DX009 (ip), vehicle: Klucel (hydroxypropylcellulose) (HPC).
Setting [14] is: dose: 25.0 mg/kg/injection, schedule: Q01DX009 (ip), vehicle: Klucel (hydroxypropylcellulose) (HPC).

Molecules are shown by their SMILES. Several values for one entry are separate records, joined by “and”; a condition that tells them apart may be missing. Equal entries are not always repeated. Toxic doses and inconclusive results are not listed.

With `[Cl][Pt+2][Cl].[NH-]CCO.[NH-]CCO`, the T/C is 100 % of control under setting [1]; 104 % of control under setting [2]; 104 % of control (dose: 12.5 mg/kg/injection, schedule: Q01DX009 (ip), vehicle: saline).

On to `COC1=C2CC(C)CC(OC)C(O)C(C)/C=C(\C)C(OC(N)=O)C(OC)/C=C\C=C(/C)C(=O)NC(=C(/C=N/N(C)C)C1=O)C2=O` (centres undefined), for which the T/C by setting is: (dose: 12.5 mg/kg/injection, schedule: Q01DX005 (ip), vehicle: other) 101 % of control; (dose: 25.0 mg/kg/injection, schedule: Q01DX005 (ip), vehicle: other) 101 % of control; (dose: 50.0 mg/kg/injection, schedule: Q01DX005 (ip), vehicle: other) 101 % of control; (dose: 100.0 mg/kg/injection, schedule: Q01DX005 (ip), vehicle: other) 97 % of control; (dose: 200.0 mg/kg/injection, schedule: Q01DX005 (ip), vehicle: other) 96 % of control.

Regarding `O=C(N=C1C=CC(=NC(=O)OCc2ccccc2)C=C1)OCc1ccccc1`, the T/C reads like this: (dose: 75.0 mg/kg/injection, schedule: Q01DX009 (ip), vehicle: Klucel (hydroxypropylcellulose) (HPC)) 98 % of control; (dose: 150.0 mg/kg/injection, schedule: Q01DX009 (ip), vehicle: Klucel (hydroxypropylcellulose) (HPC)) 92 % of control; (dose: 300.0 mg/kg/injection, schedule: Q01DX009 (ip), vehicle: Klucel (hydroxypropylcellulose) (HPC)) 91 % of control.

Consider `Cc1cc(C(C)C)cc(C(C)C)c1`, for which the T/C by setting is: (dose: 6.25 mg/kg/injection, schedule: Q04DX003 (ip), vehicle: Klucel (hydroxypropylcellulose) (HPC)) 102 % of control; (dose: 12.5 mg/kg/injection, schedule: Q04DX003 (ip), vehicle: Klucel (hydroxypropylcellulose) (HPC)) 108 % of control; (dose: 25.0 mg/kg/injection, schedule: Q04DX003 (ip), vehicle: Klucel (hydroxypropylcellulose) (HPC)) 105 % of control; under setting [3], 88 % of control; under setting [4], 98 % of control; under setting [5], 97 % of control.

Turning to `O=C(O)C1CC[N-]CC1.O=C(O)C1CC[N-]CC1.O=C(O)C1CC[N-]CC1.O=C(O)C1CC[N-]CC1.[Cl][Rh][Cl]`, the T/C under setting [6] was 104 % of control, the T/C under setting [7] is 94 % of control and the T/C under setting [8] was 102 % of control.

Consider `Cc1n(Cc2ccccc2)c2c([n+]1C)C(=O)c1ccccc1C2=O`, for which the T/C is, setting by setting: (dose: 0.13 mg/kg/injection, schedule: Q01DX009 (ip), vehicle: saline) 95 % of control; under setting [9], 95 % of control; under setting [10], 95 % of control; under setting [11], 87 % of control.

For the molecule `Cc1ccc(S(=O)(=O)OCCN(CCOS(=O)(=O)c2ccc(C)cc2)c2ccc(F)cc2)cc1`, the T/C is 115 % of control (dose: 0.17 mg/kg/injection, schedule: Q01DX009 (ip), vehicle: saline); 108 % of control (dose: 0.35 mg/kg/injection, schedule: Q01DX009 (ip), vehicle: saline); 106 % of control (dose: 0.7 mg/kg/injection, schedule: Q01DX009 (ip), vehicle: saline); 115 % of control (dose: 1.5 mg/kg/injection, schedule: Q01DX009 (ip), vehicle: saline); 119 % of control under setting [1]; 117 % of control under setting [2]. Further, the T/C by setting is: (dose: 12.5 mg/kg/injection, schedule: Q01DX009 (ip), vehicle: saline + alcohol) 88 % of control; (dose: 50.0 mg/kg/injection, schedule: Q01DX009 (ip), vehicle: saline + alcohol) 110 % of control; under setting [7], 154 % of control; (dose: 100.0 mg/kg/injection, schedule: Q01DX009 (ip), vehicle: saline + alcohol) 104 % of control.

In the case of `C1CCNCC1`, the T/C under setting [6] was 100 % of control; the T/C under setting [7] is 102 % of control; the T/C under setting [8] is 107 % of control; the T/C (dose: 200.0 mg/kg/injection, schedule: Q01DX009 (ip), vehicle: saline) is 102 % of control.

In the case of `COc1ccc(-c2c(CC(=O)O)c3cc(OC)ccc3n2Cc2ccc(Cl)cc2)cc1`, the T/C reads like this: (dose: 100.0 mg/kg/injection, schedule: Q01DX009 (ip), vehicle: Klucel (hydroxypropylcellulose) (HPC)) 95 % of control; (dose: 100.0 mg/kg/injection, schedule: Q04DX003 (ip), vehicle: saline with Tween-80) 100 % of control; (dose: 200.0 mg/kg/injection, schedule: Q01DX009 (ip), vehicle: Klucel (hydroxypropylcellulose) (HPC)) 94 % of control; (dose: 200.0 mg/kg/injection, schedule: Q04DX003 (ip), vehicle: saline with Tween-80) 95 % of control; (dose: 400.0 mg/kg/injection, schedule: Q01DX009 (ip), vehicle: Klucel (hydroxypropylcellulose) (HPC)) 95 % of control; under setting [12], 95 % of control.

On to `COC(=O)/C(C#N)=N/O`, for which the T/C (dose: 9.37 mg/kg/injection, schedule: Q04DX003 (ip), vehicle: saline with Tween-80) is 95 % of control; the T/C (dose: 18.75 mg/kg/injection, schedule: Q04DX003 (ip), vehicle: saline with Tween-80) was 110 % of control; the T/C (dose: 37.5 mg/kg/injection, schedule: Q04DX003 (ip), vehicle: saline with Tween-80) was 100 % of control; the T/C under setting [7] was 107 % of control; the T/C (dose: 75.0 mg/kg/injection, schedule: Q04DX003 (ip), vehicle: saline) is 91 % of control; the T/C under setting [8] is 92 % of control.

Consider `O=C1CN(CCN2CC(=O)NC(=O)C2)CC(=O)N1`, for which the T/C reads like this: (dose: 15.0 mg/kg/injection, schedule: Q01DX009 (oral), vehicle: saline) 115 % of control; (dose: 30.0 mg/kg/injection, schedule: Q01DX009 (oral), vehicle: saline) 122 % of control.

Turning to `CCN(CC)CCOc1cc(C)ccc1C(C)C`, the T/C by setting is: (dose: 50.0 mg/kg/injection, schedule: Q01DX009 (ip), vehicle: Klucel (hydroxypropylcellulose) (HPC)) 111 % of control; under setting [3], 95 % of control; under setting [4], 97 % of control; under setting [5], 86 % of control.

Turning to `COc1ccc2nc3cc(Cl)ccc3c(Nc3ccc(O)c(CN(CCCl)CCCl)c3)c2c1`, the T/C under setting [9] is 104 % of control, the T/C under setting [10] was 121 % of control and the T/C under setting [11] is 120 % of control.

Turning to `CN(C)[C@@H]1C(=O)C(C(=O)NCN(CCCl)CCCl)=C(O)[C@@]2(O)C(=O)C3=C(O)c4c(O)cccc4[C@@](C)(O)[C@H]3C[C@@H]12`, the T/C by setting is: (dose: 3.13 mg/kg/injection, schedule: Q01DX009 (ip), vehicle: Klucel (hydroxypropylcellulose) (HPC)) 98 % of control; under setting [13], 113 % of control; under setting [14], 97 % of control.

As for `CS(=O)(=O)OCCN(CCOS(C)(=O)=O)c1ccc(/C=N/Nc2ncnc3nc[nH]c23)cc1`, the T/C is, setting by setting: (dose: 25.0 mg/kg/injection, schedule: Q01DX009 (ip), vehicle: saline with Tween-80) 115 % of control; (dose: 50.0 mg/kg/injection, schedule: Q01DX009 (ip), vehicle: saline with Tween-80) 110 % of control; (dose: 100.0 mg/kg/injection, schedule: Q01DX009 (ip), vehicle: saline with Tween-80) 105 % of control and 113 % of control; under setting [12], 91 % of control and 121 % of control.

`COc1cc2c(c(OC)c1OC)-c1ccc(SCc3ccccc3)c(=O)cc1[C@@H](NC(C)=O)CC2`: the T/C reads like this: (dose: 1.56 mg/kg/injection, schedule: Q01DX009 (ip), vehicle: Klucel (hydroxypropylcellulose) (HPC)) 91 % of control and 111 % of control; (dose: 3.12 mg/kg/injection, schedule: Q01DX009 (ip), vehicle: Klucel (hydroxypropylcellulose) (HPC)) 102 % of control and 107 % of control; under setting [13], 101 % of control and 106 % of control; (dose: 12.5 mg/kg/injection, schedule: Q01DX009 (ip), vehicle: Klucel (hydroxypropylcellulose) (HPC)) 109 % of control and 111 % of control; under setting [14], 113 % of control.

On to `Cc1ccc(S(=O)(=O)c2ccc(Sc3cccc[n+]3[O-])c3nonc23)cc1`, for which the T/C runs as follows: (dose: 80.0 mg/kg/injection, schedule: Q04DX002 (ip), vehicle: saline with Tween-80) 97 % of control; (dose: 160.0 mg/kg/injection, schedule: Q04DX002 (ip), vehicle: saline with Tween-80) 102 % of control; (dose: 320.0 mg/kg/injection, schedule: Q04DX002 (ip), vehicle: saline with Tween-80) 100 % of control.
